Patent publication US20220370440A1 (Lead Discovery Center GmbH, priority 2018, published 2022)

Columns and labels:
HER2 INS YVMA = target: T1, HER2 INS YVMA (Homo sapiens, UniProt P04626, INS775YVMA); experiment: Lance Kinase Activity Assay, HER2 INS YVMA (Her2 Exon 20 INSYVMA Lance); assay type: biochemical; conditions: biochemical Lance assay
T1 construct: purchased DPF
Procedure, shortened: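 Kinase phosphorylates a ULight-labelled peptide substrate; Eu anti-phospho antibody gives TR-FRET (ex 340 nm, em 665/615 nm). Compounds in 1:3 serial dilution over 8 steps, reaction started with ATP, 1 h at room temperature, stopped with EDTA-containing detection mix for 1 h. IC50 from sigmoidal dose-response curves.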

[1] = target: Her2 Exon 20 INSYVMA Ba/F3 (Homo sapiens, UniProt P04626, DUP772-775, cells depend on it); experiment: Her2 Exon 20 INSYVMA Ba/F3 CellTiter-Glo; assay type: cell-based; conditions: CellTiter-Glo, 72 h, read-out: Her2 Exon 20 INSYVMA Ba/F3 CTG IC50
Procedure, shortened: (§1)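 IC50 values, binned A (≤100 nM) through E (>10000 nM), come from luminescent ATP quantitation of viable mutant-driven Ba/F3 cells. Compound exposure lasted 72 h, starting 24 h post-seeding; DMSO and 10 μM staurosporine served as controls, Z′ ≥0.5 required.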

[2] = target: EGFR Exon 20 INSNPH Ba/F3 (Homo sapiens, UniProt P00533, DUP771-773, cells depend on it); experiment: EGFR Exon 20 INSNPH Ba/F3 CellTiter-Glo; assay type: cell-based; conditions: CellTiter-Glo, 72 h, read-out: EGFR Exon 20 INSNPH Ba/F3 CTG IC50
Procedure, shortened: as §1

EGFR T790ML858R = EGFR T790ML858R (Homo sapiens, UniProt P00533, L858R/T790M); experiment: EGFR T790ML858R Lance assay; assay type: biochemical
Description: (§2) Inhibition is indicated as […] [nM] (“−”=not measured). Compounds having an activity designated as “A” provided an IC50≤100 nM; compounds having an activity designated as “B” provided an 100 nM<IC50≤500 nM; compounds having an activity designated as “C” provided an 500 nM<IC50≤1000 nM; compounds having an activity designated as “D” provided an 1000 nM<IC50≤100000 nM; and compounds having an activity designated as “E” provided an IC50>10000 nM.

EGFR wt = EGFR wt (Homo sapiens, UniProt P00533); experiment: EGFR wt Lance assay; assay type: biochemical
Description: as §2

H1975 = H1975 CellTiter-Glo; assay type: cell-based; conditions: Homo sapiens, NCI-H1975; 72 h compound incubation; read-out: H1975 CTG IC50
Procedure, shortened: (§3)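 Antiproliferative IC50 values come from a 72 h treatment of cultured cells, measured by CellTiter-Glo ATP luminescence. Only runs with a Z′-factor of at least 0.5, calculated from 16 vehicle and 16 Staurosporine (10 μM) control wells, are reported.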

H1781 = H1781 CellTiter-Glo; assay type: cell-based; conditions: NCI-H1781; 72 h compound incubation; read-out: H1781 CTG IC50
Description: 2. Measurement of Cellular Activity
The CellTiter-Glo Luminescent Cell Viability Assay (Promega) is a homogeneous method of determining the number of viable cells in culture. It is based on quantification of ATP, indicating the presence of metabolically active cells. Cells are seeded on day 1 at cell numbers that assure assay linearity and optimal signal intensity. After incubation for 24 h in humidified chambers at 37° C. and 5% CO2, compounds in DMSO are added at different concentrations. Cells are further incubated for 72 h at 37° C. and 5% CO2. Cells treated with the compound vehicle DMSO are used as positive controls and cells treated with 10 μM Staurosporine serve as negative controls. At day 5 the CellTiter Glo Reagent is prepared according to the instructions of the kit (Promega Inc.): Reagent is mixed 1:1 with cell culture medium. Thereon, mixture and assay plates are equilibrated at room temperature for 20 min. Equal volumes of the reagent-medium-mixture is added to the volume of culture medium present in each well. The plates are mixed at ˜200 rpm for 2 minutes on an orbital shaker. The microplates are then incubated at room temperature for 10 minutes for stabilization of the luminescent signal. Following incubation the luminescence is recorded on a Victor microplate reader (Perkin Elmer) using a 200 ms integration time. The data is then analyzed with Excel using the XLFIT Plugin (dose response Fit 205) for IC50-determination. As quality control the Z′-factor is calculated from 16 positive and negative control values. Only assay results showing a Z′-factor ≥0.5 are used for further analysis.
as §2

A431 = A431 CellTiter-Glo; assay type: cell-based; conditions: Homo sapiens, A-431; 72 h compound incubation; read-out: A431 CTG IC50
Procedure, shortened: as §3

[3] = Metabolic stability in mouse liver microsomes without cofactor NADPH; assay type: in vitro ADME; conditions: 3 μM test compound, mouse liver microsomes, without NADPH, 50 min, 37° C., LC-MS/MS
Procedure, shortened: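 Test compound (3 μM) was incubated with mouse liver microsomes without NADPH at 37° C. Depletion was followed by LC-MS/MS over time up to 50 min.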

Chain of EGFR Exon 20 INSNPH Ba/F3 (P00533 with tags, fused parts or gaps DUP771-773): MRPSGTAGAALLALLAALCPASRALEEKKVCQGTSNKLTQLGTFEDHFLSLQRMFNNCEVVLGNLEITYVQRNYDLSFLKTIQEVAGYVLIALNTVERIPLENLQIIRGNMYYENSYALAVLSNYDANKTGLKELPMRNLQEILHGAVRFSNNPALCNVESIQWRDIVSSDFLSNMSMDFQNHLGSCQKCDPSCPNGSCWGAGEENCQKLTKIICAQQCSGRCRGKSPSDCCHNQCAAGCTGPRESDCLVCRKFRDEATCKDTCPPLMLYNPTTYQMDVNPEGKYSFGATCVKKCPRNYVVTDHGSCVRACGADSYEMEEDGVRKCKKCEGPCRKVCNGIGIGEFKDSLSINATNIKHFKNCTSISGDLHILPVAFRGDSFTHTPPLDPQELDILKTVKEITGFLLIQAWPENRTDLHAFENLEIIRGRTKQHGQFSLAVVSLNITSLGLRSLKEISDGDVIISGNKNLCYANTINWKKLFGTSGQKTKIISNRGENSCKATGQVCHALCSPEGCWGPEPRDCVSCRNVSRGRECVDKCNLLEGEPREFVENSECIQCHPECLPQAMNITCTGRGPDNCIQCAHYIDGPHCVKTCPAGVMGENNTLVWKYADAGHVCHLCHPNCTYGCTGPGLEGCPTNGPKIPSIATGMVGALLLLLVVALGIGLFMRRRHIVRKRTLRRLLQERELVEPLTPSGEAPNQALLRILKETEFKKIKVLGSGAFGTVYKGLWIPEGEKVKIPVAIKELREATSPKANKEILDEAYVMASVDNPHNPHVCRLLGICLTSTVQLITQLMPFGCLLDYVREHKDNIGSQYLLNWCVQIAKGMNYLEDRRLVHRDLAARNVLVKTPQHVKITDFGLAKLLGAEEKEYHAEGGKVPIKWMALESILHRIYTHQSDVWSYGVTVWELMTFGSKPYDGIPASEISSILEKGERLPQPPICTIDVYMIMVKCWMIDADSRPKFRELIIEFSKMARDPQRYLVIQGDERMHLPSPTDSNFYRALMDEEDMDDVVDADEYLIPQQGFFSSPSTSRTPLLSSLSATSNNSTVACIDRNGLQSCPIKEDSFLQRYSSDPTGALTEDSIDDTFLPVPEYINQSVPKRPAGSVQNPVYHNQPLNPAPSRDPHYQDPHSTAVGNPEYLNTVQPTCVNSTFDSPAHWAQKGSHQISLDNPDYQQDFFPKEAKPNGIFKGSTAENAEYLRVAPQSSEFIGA
Chain of Her2 Exon 20 INSYVMA Ba/F3 (P04626 with tags, fused parts or gaps DUP772-775): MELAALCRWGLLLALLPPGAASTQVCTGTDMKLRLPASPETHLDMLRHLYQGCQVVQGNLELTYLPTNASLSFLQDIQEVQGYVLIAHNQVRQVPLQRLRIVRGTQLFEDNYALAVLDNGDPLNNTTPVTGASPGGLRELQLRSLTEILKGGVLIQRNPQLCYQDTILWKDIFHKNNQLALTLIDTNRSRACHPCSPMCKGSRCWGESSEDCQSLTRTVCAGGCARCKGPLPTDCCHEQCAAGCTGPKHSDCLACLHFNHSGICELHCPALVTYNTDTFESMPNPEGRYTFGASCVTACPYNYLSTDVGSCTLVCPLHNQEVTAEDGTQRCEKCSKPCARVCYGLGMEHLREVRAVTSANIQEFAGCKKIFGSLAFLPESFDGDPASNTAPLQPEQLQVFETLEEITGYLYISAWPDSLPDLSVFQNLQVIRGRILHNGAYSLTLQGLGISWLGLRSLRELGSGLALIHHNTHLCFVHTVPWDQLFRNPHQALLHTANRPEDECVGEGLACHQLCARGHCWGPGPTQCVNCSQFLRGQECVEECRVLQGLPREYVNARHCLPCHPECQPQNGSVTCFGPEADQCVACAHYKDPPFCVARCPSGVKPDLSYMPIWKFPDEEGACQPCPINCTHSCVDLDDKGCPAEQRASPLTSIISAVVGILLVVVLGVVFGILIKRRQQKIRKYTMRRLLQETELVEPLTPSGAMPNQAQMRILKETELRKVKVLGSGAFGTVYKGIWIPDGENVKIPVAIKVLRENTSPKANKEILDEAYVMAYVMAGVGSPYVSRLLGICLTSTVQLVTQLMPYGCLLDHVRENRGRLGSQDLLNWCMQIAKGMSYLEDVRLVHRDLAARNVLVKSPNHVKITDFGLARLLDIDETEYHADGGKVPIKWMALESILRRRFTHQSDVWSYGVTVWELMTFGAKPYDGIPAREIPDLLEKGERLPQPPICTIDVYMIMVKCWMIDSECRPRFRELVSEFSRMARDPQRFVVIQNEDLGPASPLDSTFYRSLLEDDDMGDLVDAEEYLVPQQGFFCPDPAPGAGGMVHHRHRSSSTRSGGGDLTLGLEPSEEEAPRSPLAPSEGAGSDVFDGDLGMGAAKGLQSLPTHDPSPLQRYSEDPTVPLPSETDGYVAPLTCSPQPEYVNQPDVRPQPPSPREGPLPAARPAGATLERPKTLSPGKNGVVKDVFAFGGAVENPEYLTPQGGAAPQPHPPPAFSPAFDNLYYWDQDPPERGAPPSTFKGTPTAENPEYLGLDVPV
T1 sequence (P04626 with tags, fused parts or gaps INS775YVMA): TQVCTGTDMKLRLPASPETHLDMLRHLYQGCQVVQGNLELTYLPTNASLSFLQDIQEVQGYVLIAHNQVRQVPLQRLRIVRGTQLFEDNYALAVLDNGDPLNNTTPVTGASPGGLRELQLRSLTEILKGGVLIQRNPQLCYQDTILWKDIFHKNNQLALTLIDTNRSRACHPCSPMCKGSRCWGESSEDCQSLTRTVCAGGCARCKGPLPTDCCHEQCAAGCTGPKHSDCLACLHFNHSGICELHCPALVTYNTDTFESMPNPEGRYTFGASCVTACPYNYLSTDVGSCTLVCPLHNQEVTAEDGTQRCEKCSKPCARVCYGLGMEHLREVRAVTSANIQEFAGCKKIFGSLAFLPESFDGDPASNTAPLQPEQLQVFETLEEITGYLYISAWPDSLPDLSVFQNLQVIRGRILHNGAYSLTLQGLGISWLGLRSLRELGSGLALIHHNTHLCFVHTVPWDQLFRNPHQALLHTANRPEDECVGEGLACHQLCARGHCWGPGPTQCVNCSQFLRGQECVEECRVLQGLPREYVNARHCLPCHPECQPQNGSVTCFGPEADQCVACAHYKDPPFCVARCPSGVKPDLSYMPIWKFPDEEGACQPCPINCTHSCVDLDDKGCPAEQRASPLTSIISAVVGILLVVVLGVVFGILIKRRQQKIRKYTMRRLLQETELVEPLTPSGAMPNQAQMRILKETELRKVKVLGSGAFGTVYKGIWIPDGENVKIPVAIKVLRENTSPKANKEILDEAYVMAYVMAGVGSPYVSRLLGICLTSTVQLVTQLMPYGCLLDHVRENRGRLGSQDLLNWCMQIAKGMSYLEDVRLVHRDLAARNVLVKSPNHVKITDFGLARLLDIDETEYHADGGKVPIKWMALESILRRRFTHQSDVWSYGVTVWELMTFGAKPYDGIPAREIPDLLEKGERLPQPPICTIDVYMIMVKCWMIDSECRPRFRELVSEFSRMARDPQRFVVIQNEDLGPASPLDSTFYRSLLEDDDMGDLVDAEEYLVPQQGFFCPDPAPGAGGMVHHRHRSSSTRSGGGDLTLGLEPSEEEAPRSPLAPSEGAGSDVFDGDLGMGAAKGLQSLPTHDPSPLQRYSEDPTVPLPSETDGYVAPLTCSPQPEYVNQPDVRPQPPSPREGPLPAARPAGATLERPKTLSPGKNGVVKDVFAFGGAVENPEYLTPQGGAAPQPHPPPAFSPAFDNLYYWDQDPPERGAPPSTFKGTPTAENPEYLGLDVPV
Chain of EGFR wt (P00533 25-1210): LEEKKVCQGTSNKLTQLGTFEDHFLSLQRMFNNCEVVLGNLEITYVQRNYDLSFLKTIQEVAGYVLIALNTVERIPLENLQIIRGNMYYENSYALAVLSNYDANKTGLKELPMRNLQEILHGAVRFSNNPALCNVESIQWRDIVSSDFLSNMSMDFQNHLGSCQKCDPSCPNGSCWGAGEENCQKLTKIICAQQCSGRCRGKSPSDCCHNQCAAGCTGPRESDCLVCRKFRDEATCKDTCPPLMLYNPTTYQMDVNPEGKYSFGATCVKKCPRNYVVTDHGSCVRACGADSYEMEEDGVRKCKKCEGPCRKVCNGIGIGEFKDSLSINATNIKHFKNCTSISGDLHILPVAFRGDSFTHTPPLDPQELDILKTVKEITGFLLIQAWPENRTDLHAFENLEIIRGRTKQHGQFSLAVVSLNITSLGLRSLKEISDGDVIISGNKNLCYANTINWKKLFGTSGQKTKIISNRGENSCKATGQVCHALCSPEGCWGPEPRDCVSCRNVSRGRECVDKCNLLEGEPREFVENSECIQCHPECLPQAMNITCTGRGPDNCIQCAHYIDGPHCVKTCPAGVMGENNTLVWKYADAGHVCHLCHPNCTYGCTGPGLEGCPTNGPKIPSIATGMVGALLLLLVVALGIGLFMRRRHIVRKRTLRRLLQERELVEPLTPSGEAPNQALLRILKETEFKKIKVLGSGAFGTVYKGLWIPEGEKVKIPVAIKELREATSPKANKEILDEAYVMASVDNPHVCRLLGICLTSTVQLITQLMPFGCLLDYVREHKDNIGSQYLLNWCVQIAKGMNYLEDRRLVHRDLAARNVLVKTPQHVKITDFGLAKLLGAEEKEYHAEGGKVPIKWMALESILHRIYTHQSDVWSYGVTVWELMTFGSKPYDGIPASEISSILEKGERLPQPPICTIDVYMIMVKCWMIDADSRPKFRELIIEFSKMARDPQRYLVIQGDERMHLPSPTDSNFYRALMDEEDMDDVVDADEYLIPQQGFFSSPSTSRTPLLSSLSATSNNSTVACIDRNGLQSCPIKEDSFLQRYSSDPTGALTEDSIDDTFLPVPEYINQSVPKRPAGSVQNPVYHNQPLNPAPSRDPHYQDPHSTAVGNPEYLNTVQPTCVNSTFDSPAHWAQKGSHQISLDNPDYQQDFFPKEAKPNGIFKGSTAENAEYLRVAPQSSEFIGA

| Compound | IC50 (HER2 INS YVMA) [nM] | GI50 [1] [nM] | GI50 [2] [nM] | IC50 (EGFR T790ML858R) [nM] | IC50 (EGFR wt) [nM] | IC50 (H1975) [nM] | IC50 (H1781) [nM] | IC50 (A431) [nM] | Stability in presence of mouse liver microsomes without cofactor NADPH [% remaining after 50 min] [3] [% remaining after 50 min] |
| --- | --- | --- | --- | --- | --- | --- | --- | --- | --- |
| C=CC(=O)Nc1cc(-c2c(-c3ccc(CN4CCOCC4)cc3)[nH]c3nccc(Cl)c23)ccc1C [Example 5, N-(5-(4-chloro-2-(4-(morpholinomethyl)phenyl)-1H-pyrrolo[2,3-b]pyridin-3-yl)-2-methylphenyl)acrylamide] | ≤ 100 | 100 to 500 | 100 to 500 | ≤ 100 | ≤ 100 | ≤ 100 | > 10000 | > 10000 | >99 |
| C=CC(=O)Nc1cc(-c2c(-c3cccc(OCCCN4CCN(CC)CC4)c3)[nH]c3nccc(Cl)c23)ccc1C [Example 25, N-(5-(4-chloro-2-(3-(3-(4-ethylpiperazin-1-yl)propoxy)phenyl)-1H-pyrrolo[2,3-b]pyridin-3-yl)-2-methylphenyl)acrylamide] | ≤ 100 | 100 to 500 | 100 to 500 | ≤ 100 | ≤ 100 | ≤ 100 | 500 to 1000 | 100 to 500 | >99 |
| C=CC(=O)Nc1cc(-c2c(-c3ccc(N4CCN(C)CC4)nc3)[nH]c3ncccc23)ccc1C [Example 78, N-(2-methyl-5-(2-(6-(4-methylpiperazin-1-yl)pyridin-3-yl)-1H-pyrrolo[2,3-b]pyridin-3-yl)phenyl)acrylamide 2,2,2-trifluoroacetate] | 100 to 500 | 100 to 500 | 500 to 1000 | ≤ 100 | ≤ 100 | ≤ 100 | 500 to 1000 | 100 to 500 | >99 |
| C=CC(=O)Nc1cc(-c2c(-c3ccc(OCCCN4CCN(CC)CC4)cc3)[nH]c3nccc(Cl)c23)ccc1C [Example 23, N-(5-(4-chloro-2-(4-(3-(4-ethylpiperazin-1-yl)propoxy)phenyl)-1H-pyrrolo[2,3-b]pyridin-3-yl)-2-methylphenyl)acrylamide] | ≤ 100 | 100 to 500 | 100 to 500 | ≤ 100 | ≤ 100 | ≤ 100 | 100 to 500 | 100 to 500 | >99 |
| C=CC(=O)Nc1cc(-c2c(-c3cccc(CN4CCN(C)CC4)c3)[nH]c3nccc(Cl)c23)ccc1C [Example 16, N-(5-(4-chloro-2-(3-((4-methylpiperazin-1-yl)methyl)phenyl)-1H-pyrrolo[2,3-b]pyridin-3-yl)-2-methylphenyl)acrylamide] | ≤ 100 | 100 to 500 | 100 to 500 | ≤ 100 | ≤ 100 | ≤ 100 | 500 to 1000 | 500 to 1000 | >99 |
| C=CC(=O)Nc1cc(-c2c(-c3ccc(N4CCN(C)CC4)cc3)[nH]c3nccc(Cl)c23)ccc1C [Example 2, N-(5-(4-chloro-2-(4-(4-methylpiperazin-1-yl)phenyl)-1H-pyrrolo[2,3-b]pyridin-3-yl)-2-methylphenyl)acrylamide] | ≤ 100 | ≤ 100 | ≤ 100 | ≤ 100 | ≤ 100 | ≤ 100 | 100 to 500 | 100 to 500 | >99 |
| C=CC(=O)Nc1cc(-c2c(-c3ccc(C4CCN(C)CC4)cc3)[nH]c3ncccc23)ccc1C [Example 79, N-(2-methyl-5-(2-(4-(1-methylpiperidin-4-yl)phenyl)-1H-pyrrolo[2,3-b]pyridin-3-yl)phenyl)acrylamide] | ≤ 100 | 100 to 500 | 100 to 500 | ≤ 100 | ≤ 100 | ≤ 100 | 500 to 1000 | 100 to 500 | >99 |
| C=CC(=O)N1CCc2ccc(-c3c(-c4ccc(C5CCN(C)CC5)cc4)[nH]c4nccc(Cl)c34)cc21 [Example 55, 1-(6-(4-Chloro-2-(4-(1-methylpiperidin-4-yl)phenyl)-1H-pyrrolo[2,3-b]pyridin-3-yl)indolin-1-yl)prop-2-en-1-one 2,2,2-trifluoroacetate] | ≤ 100 | 500 to 1000 | 500 to 1000 | ≤ 100 | ≤ 100 | ≤ 100 | 1000 to 100000 | 1000 to 100000 | >99 |
| C=CC(=O)N1CCc2ccc(-c3c(-c4ccc(N5CCN(C)CC5)c(F)c4)[nH]c4nccc(Cl)c34)cc21 [Example 57, 1-(6-(4-chloro-2-(3-fluoro-4-(4-methylpiperazin-1-yl)phenyl)-1H-pyrrolo[2,3-b]pyridin-3-yl)indolin-1-yl)prop-2-en-1-one] | ≤ 100 | 100 to 500 | 500 to 1000 | ≤ 100 | ≤ 100 | 100 to 500 | 1000 to 100000 | 1000 to 100000 | >99 |
| C=CC(=O)N1CCc2ccc(-c3c(-c4ccc(N5CCN(C)CC5)cc4)[nH]c4nccc(Cl)c34)cc21 [Example 56, 1-(6-(4-chloro-2-(4-(4-methylpiperazin-1-yl)phenyl)-1H-pyrrolo[2,3-b]pyridin-3-yl)indolin-1-yl)prop-2-en-1-one] | ≤ 100 | 100 to 500 | 100 to 500 | ≤ 100 | ≤ 100 | ≤ 100 | 500 to 1000 | 500 to 1000 | >99 |
| C=CC(=O)N1CCc2ccc(-c3c(-c4ccc(CN5CCN(C)CC5)cc4)[nH]c4nccc(Cl)c34)cc21 [Example 60, 1-(6-(4-chloro-2-(4-((4-methylpiperazin-1-yl)methyl)phenyl)-1H-pyrrolo[2,3-b]pyridin-3-yl)indolin-1-yl)prop-2-en-1-one] | ≤ 100 | 100 to 500 | 100 to 500 | ≤ 100 | ≤ 100 | 100 to 500 | 500 to 1000 | 500 to 1000 | >99 |
| C=CC(=O)Nc1cc(-c2c(-c3ccc(CN(C)C)cc3)[nH]c3nccc(Cl)c23)ccc1C [Example 10, N-(5-(4-chloro-2-(4-((dimethylamino)methyl)phenyl)-1H-pyrrolo[2,3-b]pyridin-3-yl)-2-methylphenyl)acrylamide] | ≤ 100 | ≤ 100 | ≤ 100 | ≤ 100 | ≤ 100 | ≤ 100 | 100 to 500 | 500 to 1000 | >99 |
